Measured values reported in ChEMBL document CHEMBL1201862, “PubChem BioAssay data set” (2004).
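Five compound concentrations were applied to cells in 96-well plates for 48 hours; endpoints were derived by simple linear interpolation of the resulting dose-response curve. The concentration for 50% growth inhibition is given as GI50.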 Calls of active or inactive are those of the source. No stated cut-off is given here; in the data, active = GI50 up to about 1.1 µM and inactive = higher.

Legend:
Assay in all cases: DTP human tumour cell line panel, 48 h
A549 = system: A549
HCC 2998 = system: HCC 2998
HCT-116 = system: HCT-116
HL-60 = system: HL-60
K562 = system: K562
MOLT-4 = system: MOLT-4
Malme-3M = system: Malme-3M
NCI-H23 = system: NCI-H23
OVCAR-5 = system: OVCAR-5
OVCAR-8 = system: OVCAR-8
RPMI-8226 = system: RPMI-8226
RXF 393 = system: RXF 393
SF-539 = system: SF-539
SK-MEL-28 = system: SK-MEL-28
SNB-19 = system: SNB-19
UACC-62 = system: UACC-62
NCI-H226 = system: NCI-H226

SMILES	GI50 (A549)	GI50 (HCC 2998)	GI50 (HCT-116)	GI50 (HL-60)	GI50 (K562)	GI50 (MOLT-4)	GI50 (Malme-3M)	GI50 (NCI-H23)	GI50 (OVCAR-5)	GI50 (OVCAR-8)	GI50 (RPMI-8226)	GI50 (RXF 393)	GI50 (SF-539)	GI50 (SK-MEL-28)	GI50 (SNB-19)	GI50 (UACC-62)	GI50 (NCI-H226)
Cc1nc2cc(Nc3ccccc3C(=O)O)ccc2s1	> 100 µM (inactive)	> 100 µM (inactive)	90.8 µM (inactive)	> 100 µM (inactive)	> 100 µM (inactive)	> 100 µM (inactive)	> 100 µM (inactive)	> 100 µM (inactive)	> 100 µM (inactive)	> 100 µM (inactive)	> 100 µM (inactive)	> 100 µM (inactive)	> 100 µM (inactive)	> 100 µM (inactive)	> 100 µM (inactive)	> 100 µM (inactive)	
CC(C)(C)C(=O)Nc1cccc2oc(-c3ccccc3)cc12	> 100 µM (inactive)	> 100 µM (inactive)		66.2 µM (inactive)	> 100 µM (inactive)	49.7 µM (inactive)		> 100 µM (inactive)		> 100 µM (inactive)	> 100 µM (inactive)	17.3 µM (inactive)	> 100 µM (inactive)	> 100 µM (inactive)	> 100 µM (inactive)	> 100 µM (inactive)	
O=C1Nc2ccc(Cl)c(I)c2C1=O	44.7 µM (inactive)	14.6 µM (inactive)	15.2 µM (inactive)	16.1 µM (inactive)	22.3 µM (inactive)	22.9 µM (inactive)	20.2 µM (inactive)	18.9 µM (inactive)	19.7 µM (inactive)	18.7 µM (inactive)	> 10 µM (inactive)	16.3 µM (inactive)		17.8 µM (inactive)	24.5 µM (inactive)	18.7 µM (inactive)	0.608 µM (active)
Cc1ccccc1C(C#N)C(=O)C(=O)Nc1nc([N+](=O)[O-])cs1 (stereo not given)	> 100 µM (inactive)	> 100 µM (inactive)	> 100 µM (inactive)	26.2 µM (inactive)			> 100 µM (inactive)	> 100 µM (inactive)	> 100 µM (inactive)	> 100 µM (inactive)		> 100 µM (inactive)	> 100 µM (inactive)	> 100 µM (inactive)	> 100 µM (inactive)	> 100 µM (inactive)	> 100 µM (inactive)
O=C(O)CNS(=O)(=O)c1ccc(NC(=O)c2ccccc2[N+](=O)[O-])cc1	> 100 µM (inactive)			> 100 µM (inactive)	> 100 µM (inactive)	> 100 µM (inactive)	> 100 µM (inactive)	> 100 µM (inactive)	> 100 µM (inactive)	> 100 µM (inactive)	> 100 µM (inactive)	> 100 µM (inactive)	> 100 µM (inactive)	> 100 µM (inactive)	> 100 µM (inactive)	> 100 µM (inactive)	
O=S1(=O)c2cc(S(=O)(=O)n3ccnc3)ccc2NC2=NCCCN21	34.2 µM (inactive)	23 µM (inactive)	29.7 µM (inactive)	15.5 µM (inactive)	17.7 µM (inactive)	40.7 µM (inactive)	37.9 µM (inactive)	30.7 µM (inactive)	48.1 µM (inactive)	27.2 µM (inactive)	50 µM (inactive)		19.6 µM (inactive)	> 100 µM (inactive)	78.5 µM (inactive)	48.5 µM (inactive)	19.8 µM (inactive)
Oc1ccc(O)c(-n2cccn2)c1-n1cccn1	> 100 µM (inactive)	> 100 µM (inactive)		> 10 µM (inactive)	36.8 µM (inactive)	> 10 µM (inactive)	> 100 µM (inactive)	> 100 µM (inactive)	> 100 µM (inactive)	> 100 µM (inactive)	> 100 µM (inactive)	> 100 µM (inactive)	> 100 µM (inactive)	> 100 µM (inactive)	> 100 µM (inactive)	97.7 µM (inactive)	
NC(=S)N/N=C1/CN(c2ccc(Cl)c(Cl)c2)CC(=O)C1c1nc2ccccc2s1 (stereo not given)	> 100 µM (inactive)	> 100 µM (inactive)	35.6 µM (inactive)	68.9 µM (inactive)	43 µM (inactive)		> 100 µM (inactive)	45.1 µM (inactive)	> 100 µM (inactive)	76.7 µM (inactive)	79.1 µM (inactive)	> 100 µM (inactive)	51.5 µM (inactive)	92.3 µM (inactive)	56.8 µM (inactive)	55.7 µM (inactive)	78.7 µM (inactive)
CCN(CC)CCSc1c2ccccc2nc2c(OC)ccc(OC)c12	29.3 µM (inactive)		3.04 µM (inactive)	1.73 µM (inactive)	2.94 µM (inactive)	1.65 µM (inactive)	> 41.2 µM (inactive)	14.6 µM (inactive)	29.9 µM (inactive)	2.43 µM (inactive)	2.23 µM (inactive)	1.94 µM (inactive)		2.94 µM (inactive)	43.6 µM (inactive)	3.77 µM (inactive)	29.5 µM (inactive)
CCOC(=O)C1C2CCC(C2)C1(CCl)C(=O)OCC (stereo not given)	> 100 µM (inactive)	> 100 µM (inactive)	> 100 µM (inactive)	> 100 µM (inactive)	> 100 µM (inactive)	> 100 µM (inactive)	> 100 µM (inactive)	> 100 µM (inactive)	> 100 µM (inactive)	> 100 µM (inactive)	> 100 µM (inactive)			> 100 µM (inactive)	> 100 µM (inactive)	> 100 µM (inactive)	> 100 µM (inactive)
CCc1ccccc1NC(=O)CCc1nnc(S)[nH]1	> 100 µM (inactive)	> 100 µM (inactive)	> 100 µM (inactive)	> 100 µM (inactive)	> 100 µM (inactive)	> 100 µM (inactive)	> 100 µM (inactive)	> 100 µM (inactive)	> 100 µM (inactive)	> 100 µM (inactive)	> 100 µM (inactive)	> 100 µM (inactive)	> 100 µM (inactive)	> 100 µM (inactive)	> 100 µM (inactive)	> 100 µM (inactive)	> 100 µM (inactive)
CS(=O)(=O)c1ccc(-c2cc(-c3ccc(S(C)(=O)=O)cc3)[n+](-c3cc(-c4ccc(S(C)(=O)=O)cc4)c([O-])c(-c4ccc(S(C)(=O)=O)cc4)c3)c(-c3ccc(S(C)(=O)=O)cc3)c2)cc1	> 100 µM (inactive)	> 100 µM (inactive)	> 100 µM (inactive)		> 100 µM (inactive)	> 100 µM (inactive)	> 100 µM (inactive)	> 100 µM (inactive)	> 100 µM (inactive)	> 100 µM (inactive)	> 100 µM (inactive)	> 100 µM (inactive)	> 100 µM (inactive)	> 100 µM (inactive)	> 100 µM (inactive)	> 100 µM (inactive)	> 100 µM (inactive)
C#CCN(N=O)C(=O)ON1C(=O)CCC1=O	> 100 µM (inactive)		> 100 µM (inactive)	> 100 µM (inactive)	> 100 µM (inactive)	> 100 µM (inactive)	> 100 µM (inactive)	> 100 µM (inactive)	61.8 µM (inactive)	> 100 µM (inactive)	> 100 µM (inactive)	> 100 µM (inactive)	> 100 µM (inactive)	> 100 µM (inactive)	> 100 µM (inactive)	> 100 µM (inactive)	
CC1=C(C#N)C(=O)CC(c2ccc(Cl)cc2)N(C)N1 (stereo not given)	> 100 µM (inactive)	> 100 µM (inactive)	> 100 µM (inactive)	> 100 µM (inactive)		> 100 µM (inactive)	> 100 µM (inactive)	> 100 µM (inactive)	> 100 µM (inactive)		> 100 µM (inactive)	> 100 µM (inactive)		> 100 µM (inactive)	> 100 µM (inactive)		> 100 µM (inactive)
FC(F)(F)c1ccccc1/C=N/C12CC3CC(CC(C3)C1)C2	> 100 µM (inactive)	> 100 µM (inactive)	> 100 µM (inactive)	> 100 µM (inactive)	> 100 µM (inactive)	> 100 µM (inactive)	> 100 µM (inactive)	> 100 µM (inactive)	> 100 µM (inactive)	> 100 µM (inactive)	> 100 µM (inactive)	> 100 µM (inactive)	> 100 µM (inactive)	> 100 µM (inactive)	0.986 µM (active)		> 100 µM (inactive)
O=S(=O)(c1ccccc1)N1N=C2c3ccccc3CCC[C@H]2C1c1ccccc1 (stereo not given in full)	> 100 µM (inactive)	> 100 µM (inactive)	> 100 µM (inactive)	> 100 µM (inactive)	> 100 µM (inactive)	> 87.7 µM (inactive)	> 100 µM (inactive)	> 100 µM (inactive)	> 100 µM (inactive)	> 100 µM (inactive)	> 100 µM (inactive)	> 100 µM (inactive)	> 100 µM (inactive)	> 100 µM (inactive)	> 100 µM (inactive)	> 87.1 µM (inactive)	> 66.1 µM (inactive)
N#CC(C#N)=C(C(C#N)C#N)C(C#N)C#N	> 100 µM (inactive)	> 100 µM (inactive)	> 100 µM (inactive)	> 100 µM (inactive)	> 100 µM (inactive)	> 100 µM (inactive)	> 100 µM (inactive)	> 100 µM (inactive)	> 100 µM (inactive)	> 100 µM (inactive)	> 100 µM (inactive)	> 100 µM (inactive)	> 100 µM (inactive)		> 100 µM (inactive)	> 100 µM (inactive)	> 100 µM (inactive)
